The record followed here is ChEMBL document CHEMBL1142376, “Novel CADD-based peptidyl vinyl ester derivatives as potential proteasome inhibitors” (Bioorg Med Chem Lett, 2008).

Structures are written as SMILES. A value given as a limit tells only on which side of the number the result lay.

In test [1] the test system is KB. As to the kind of experiment: Antiproliferative activity against human KB cells at 10 umole. Type of test: functional.
Test [2] relates to Bel-7402. Put plainly: Antiproliferative activity against human Bel7402 cells at 10 umole. Type of test: functional.
Test [3] concerns BGC-823. As to the kind of experiment: Antiproliferative activity against human BGC823 cells at 10 umole. Type of test: functional.
Test [4] can be described thus: Inhibition of post acidic-like activity of 20S proteasome.
Test [5] in a line: Inhibition of chymotrypsin-like activity of 20S proteasome.
Test [6] relates to HL-60. Put plainly: Antiproliferative activity against human HL60 cells at 10 umole. The class given is functional.
Test [7] is described as follows: Inhibition of trypsin-like activity of 20S proteasome.

With `CCOC(=O)/C=C/[C@H](Cc1ccccc1)NC(=O)[C@H](CO)NC(=O)OC(C)(C)C`, the Activity in test [1] is reported as -11.24%; in test [2], -3.14%; in test [3], 19.11%; in test [6] it was 19.98%. Moreover, the IC50 in test [4], in test [5] and in test [7] was > 100 µmol in each case.
Consider `CCOC(=O)/C=C/[C@H](Cc1ccccc1)NC(=O)[C@@H](NC(=O)OC(C)(C)C)[C@@H](C)CC`, for which the Activity in test [1] is listed as -0.18%; in test [2], -7.74%; in test [3], 24.14%; in test [6], 29.56%. In addition, the IC50 in test [4], in test [5] and in test [7] was > 100 µmol throughout.
With `CCOC(=O)/C=C/[C@H](C[C@@H]1CCNC1=O)NC(=O)[C@H](CC(C)C)NC(=O)[C@H](CO)NC(=O)[C@H](Cc1ccccc1)NC(=O)OC(C)(C)C`, the Activity is recorded as -4.17% in test [1], -0.39% in test [2], 14.25% in test [3] and 4.94% in test [6]. The IC50 in test [4], in test [5] and in test [7] was > 100 µmol throughout.
In the case of `CCOC(=O)/C=C/[C@H](Cc1ccccc1)NC(=O)[C@@H](NC(=O)OC(C)(C)C)C(C)C`, the Activity in test [1] is -1.97%; in test [2], -3.57%; in test [3], 21.27%; in test [6], 27.13%. Also, the IC50 in test [4], in test [5] and in test [7] was > 100 µmol in each case.
Consider `CCOC(=O)/C=C/[C@H](Cc1ccccc1)NC(=O)[C@H](CC(C)C)NC(=O)[C@H](CC(C)C)NC(=O)OC(C)(C)C`, for which the Activity in test [1] is -1.67%; in test [2], -12.87%; in test [3], 9.95%; in test [6], 6.13%. The IC50 in test [4], in test [5] and in test [7] was > 100 µmol in each case.
As for `CCOC(=O)/C=C/[C@H](Cc1ccccc1)NC(=O)[C@@H](NC(=O)[C@@H](NC(=O)OC(C)(C)C)[C@@H](C)CC)[C@@H](C)O`, the Activity in test [1] is 10.75%; in test [2], -1.79%; in test [3] it was 13.62%; in test [6], 8.17%. Further, the IC50 in test [4], in test [5] and in test [7] was > 100 µmol in each case.
Take `CCOC(=O)/C=C/[C@H](Cc1ccc(O)cc1)NC(=O)[C@@H](NC(=O)OC(C)(C)C)C(C)C`: the Activity in test [1] was determined as 1.76%; in test [2], 4.6%; in test [3], 18.44%; in test [6] it was 22.1%. The IC50 in test [4], in test [5] and in test [7] was > 100 µmol in each case.
With `CCOC(=O)/C=C/[C@H](C[C@@H]1CCNC1=O)NC(=O)[C@H](CC(C)C)NC(=O)[C@@H](NC(=O)[C@@H](NC(=O)OC(C)(C)C)[C@@H](C)CC)[C@@H](C)O`, the Activity is on record as 4.3% in test [1], -0.31% in test [2], 19.98% in test [3] and -2.32% in test [6]. Besides, the IC50 in test [4], in test [5] and in test [7] was > 100 µmol throughout.
Consider `CCOC(=O)/C=C/[C@H](C[C@@H]1CCNC1=O)NC(=O)[C@H](CC(C)C)NC(=O)[C@H](CC(C)C)NC(=O)[C@H](CC(C)C)NC(=O)OC(C)(C)C`, for which the Activity in test [1] was found to be 15.73%; in test [2], 12.02%; in test [3] it was 16.14%; in test [6], 17.17%. The figures for the IC50 in test [4], in test [5] and in test [7] were > 100 µmol, 48.31 µmol and > 100 µmol, respectively.
`CCOC(=O)/C=C/[C@H](Cc1ccc(O)cc1)NC(=O)[C@H](Cc1ccccc1)NC(=O)[C@H](CC(C)C)NC(=O)OC(C)(C)C`: the Activity in test [1] is listed as -5.34%; in test [2], -4.24%; in test [3], 13.74%; in test [6], 7.87%. Moreover, the IC50 in test [4], in test [5] and in test [7] was > 100 µmol in each case.
In the case of `CCOC(=O)/C=C/[C@H](Cc1ccc(O)cc1)NC(=O)[C@H](Cc1ccccc1)NC(=O)OC(C)(C)C`, the Activity in test [1] was -0.7%; in test [2], 12.68%; in test [3], 33.88%; in test [6], 23.66%. The IC50 in test [4], in test [5] and in test [7] was > 100 µmol throughout.
In the case of `CCOC(=O)/C=C/[C@H](Cc1ccccc1)NC(=O)[C@H](CO)NC(=O)[C@@H](NC(=O)OC(C)(C)C)C(C)C`, the Activity in test [1] is -6.79%; in test [2] it was -11.09%; in test [3], 0.04%; in test [6], 0.36%. The IC50 in test [4], in test [5] and in test [7] was > 100 µmol throughout.
Turning to `CCOC(=O)/C=C/[C@H](C[C@@H]1CCNC1=O)NC(=O)[C@@H](NC(=O)[C@@H](NC(=O)OC(C)(C)C)[C@@H](C)CC)[C@@H](C)O`, the Activity is reported as -10.29% in test [1], -16.67% in test [2], 0.69% in test [3] and 0.71% in test [6]. Also, the IC50 in test [4], in test [5] and in test [7] was > 100 µmol in each case.
Take `CC(C)(C)OC(=O)N[C@@H](CO)C(=O)N[C@H](/C=C/C(=O)O)Cc1ccc(O)cc1`: the Activity is reported as -15.49% in test [1], -5.91% in test [2], 22.56% in test [3] and 19.26% in test [6]. Further, the IC50 in test [4], in test [5] and in test [7] was > 100 µmol in each case.
In the case of `CCOC(=O)/C=C/[C@H](C[C@@H]1CCNC1=O)NC(=O)[C@H](Cc1ccc(O)cc1)NC(=O)[C@H](CC(C)C)NC(=O)[C@H](CC(C)C)NC(=O)OC(C)(C)C`, the Activity in test [1] is given as 6.64%; in test [2], 7.64%; in test [3], 28.9%; in test [6], 17.73%. Moreover, the IC50 in test [4] was > 100 µmol; in test [5], 63.41 µmol; in test [7] it was > 100 µmol.
With `CCOC(=O)/C=C/[C@H](Cc1ccccc1)NC(=O)[C@H](Cc1ccccc1)NC(=O)OC(C)(C)C`, the Activity in test [1] is -4.66%; in test [2] it was -3.61%; in test [3] it was 20.9%; in test [6] it was 25.73%. In addition, the IC50 in test [4], in test [5] and in test [7] was > 100 µmol each time.
Regarding `CCOC(=O)/C=C/[C@H](C[C@@H]1CCNC1=O)NC(=O)[C@H](CC(C)C)NC(=O)[C@H](CO)NC(=O)[C@@H](NC(=O)OC(C)(C)C)C(C)C`, the Activity in test [1] was 9.15%; in test [2], -3.55%; in test [3] it was 20.55%; in test [6], -47.14%. Also, the IC50 in test [4], in test [5] and in test [7] was > 100 µmol throughout.
Turning to `CCOC(=O)/C=C/[C@H](Cc1ccc(O)cc1)NC(=O)[C@@H](NC(=O)[C@@H](NC(=O)OC(C)(C)C)[C@@H](C)CC)[C@@H](C)O`, the Activity in test [1] is on record as 3.76%; in test [2] it was 3.1%; in test [3], 14.69%; in test [6], 26.5%. Moreover, the IC50 in test [4], in test [5] and in test [7] was > 100 µmol each time.
Regarding `CCOC(=O)/C=C/[C@H](Cc1ccc(O)cc1)NC(=O)[C@H](CO)NC(=O)[C@@H](NC(=O)OC(C)(C)C)C(C)C`, the Activity in test [1] is on record as 7.44%; in test [2] it was 3.39%; in test [3], 22.59%; in test [6], 26.73%. In addition, the IC50 in test [4], in test [5] and in test [7] was > 100 µmol in each case.
As for `CCOC(=O)/C=C/[C@H](Cc1ccccc1)NC(=O)[C@H](CC(C)C)NC(=O)OC(C)(C)C`, the Activity in test [1] is on record as -6.67%; in test [2] it was 1.55%; in test [3], 30.21%; in test [6] it was 33.88%. Besides, the IC50 in test [4], in test [5] and in test [7] was > 100 µmol in each case.
As for `CC(C)(C)OC(=O)N[C@@H](Cc1ccccc1)C(=O)N[C@@H](CO)C(=O)N[C@H](/C=C/C(=O)O)Cc1ccc(O)cc1`, the Activity in test [1] was determined as 7.44%; in test [2], 3.39%; in test [3], 10.28%; in test [6], 13.37%. Moreover, the IC50 in test [4], in test [5] and in test [7] was > 100 µmol each time.
Regarding `CCOC(=O)/C=C/[C@H](Cc1ccccc1)NC(=O)[C@H](Cc1ccccc1)NC(=O)[C@H](CC(C)C)NC(=O)OC(C)(C)C`, the Activity is recorded as 4.33% in test [1], -4.56% in test [2], 13.32% in test [3] and 8.65% in test [6]. In addition, the IC50 in test [4], in test [5] and in test [7] was > 100 µmol each time.
